According to patent US20060194776A1, “Compositions and methods for treating tissue ischemia” (priority 2003, published 2006):
Like-named read-outs stand apart in the source and are kept apart here.

How the values were obtained:
[1] = tested on: endothelial progenitor cells (EPCs) in peripheral blood
Procedure: (§1) Peripheral blood mononuclear cells (PBMNCS) were isolated from 500 μl of peripheral blood obtained from each mouse. PBMNCs were cultured in EBM media (Clonetics, San Diego, Calif.) with 5% fetal bovine serum (FBS), antibiotics, and growth factors (EPC medium) on four-well glass slides coated with rat plasma vitronectin (Sigma) in 0.5% gelatin solution. Four days after culture, EPCs, recognized as attaching spindle-shaped cells, were assayed by co-staining with acetylated LDL (acLDL)-DiI (Biomedical Technologies, Stoughton, Mass.) and Bandeiraea simplicifolia (BS-1) lectin I (Vector Laboratories, Burlingame, Calif.), indicators of endothelial lineage, and conjugated with FITC (Sigma). EPCs were identified as double-positive cells under fluorescent microscopy. The number of double-positive cells per sample, measured in fifteen fields under 20× magnification, was counted in a blinded manner.

[2] = tested on: FVB mice after MI (LAD ligation)
Procedure: (§2) Eight-week old male FVB mice were anesthetized with sodium pentobarbital (50 mg/kg IP). The animals were intubated orally with a 22G IV catheter and artificially ventilated with a respirator (Harvard Apparatus). A left intercostal thoracotomy was performed and the ribs were retracted with 5-0 polypropylene sutures. After the pericardium was opened, the left anterior descending (LAD) branch of the left coronary artery was ligated proximal to the bifurcation between the LAD and the diagonal branch using 8-0 polypropylene sutures and visualized with a dissecting microscope. Positive end-expiratory pressure was applied to fully inflate the lungs, and the chest was closed with 7-0 polypropylene sutures. After the closure of chest wall, mice randomly received either a single subcutaneous injection of 125 μg AMD3100 (AMD group) or saline (control group). After physiological assessment at one, two and four weeks after MI, a subgroup of the mice were euthanized by intravenous administration of a lethal dose of pentobarbital.
Transthoracic echocardiography (SONOS 5500, Hewlett Packard) was performed just before MI and one, two and four weeks after MI. Left ventricular diastolic (LVDd) and systolic (LVDs) dimensions and fractional shortening were measured at the mid-papillary muscle level. Hemodynamic measurements were obtained at two and four weeks after MI using a 1.0-French high-fidelity pressure catheter (Millar Instruments, Houston, Tex.) via the left carotid artery. LV systolic pressure and maximal positive (+dP/dt) and negative (−dP/dt) pressure development were recorded after stabilization of LV function and heart rate.

[3] = tested on: mice after AMI
Procedure: as §2
All values were expressed as mean±the standard error of the mean. Statistical significance was evaluated using Wilcoxon Rank Sum Test for comparisons between mice receiving AMD3100 and those receiving saline. Overall survival of all the mice was assessed by Kaplan-Meier analysis. Survival in individual experimental groups was also analyzed by Fisher's extract probability test. A p value of less than 0.05 was considered statistically significant.

[4] = tested on: capillaries of left ventricular myocardium; settings: two weeks after AMI
Procedure: (§3) The explanted hearts of sacrificed mice were sliced in a bread-loaf fashion into transverse sections from apex to base (base-, mid-, and apex-portions) and fixed with 4% paraformaldehyde. Tissues were embedded in paraffin and sectioned for elastic tissue/trichrome staining and immunohistochemistry using the murine-specific EC marker Bandeiraea simplicifolia lectin I (Isolectin B4) (Vector laboratories).
(§4) Capillary density was assessed by histological examination of five randomly selected fields of tissue sections from segments of the left ventricular myocardium served by the occluded LAD. Capillaries were recognized as tubular structures positive for isolectin B4. Elastic tissue/trichrome-stained tissues from the mice four weeks after MI were used to measure the average ratio of the external circumference of fibrosis area to LV area.

[5] = tested on: left ventricle fibrosis; settings: two weeks after AMI
Procedure: as §3, §4

[6] = tested on: EPCs in peripheral blood
Procedure: as §1
To evaluate the effect of AMD-3100 on circulating EPC kinetics, EPC counts (cells/mm^2) were taken from peripheral blood one and two weeks after AMI. At each time point after the induction of MI, mononuclear cells were isolated from peripheral blood and total BM cells that had been obtained by flushing the tibias and femurs. EPCs were counted by culturing as described in Example 1, and stained with both acLDL-DiI and BS-1 lectin. Double positive cells were counted in 15 fields under objective 20× magnification per sample in a blinded manner.

[7] = tested on: EPCs in BM mononuclear cells; settings: one week after MI
Procedure: (§5) Fluorescence-activated cell sorting (FACS) was used to identify EPCs from mononuclear cells isolated both from peripheral blood and bone marrow. The viable mononuclear cell population was analyzed for the expression of Sca-1-FITC (Pharmingen) and Flk-1 (Santa Cruz) conjugated with the corresponding phycoerythrin-labeled secondary antibody (Sigma). Isotype-identical antibodies served as negative controls. Immunofluorescence-labeled cells were fixed with 2% paraformaldehyde and analyzed by quantitative flow cytometry using a FACStar flow cytometer (Becton Dickinson) and Cell Quest Software that counted 10,000 events per sample.

[8] = tested on: EPCs isolated from peripheral blood; settings: one week after MI
Procedure: as §5

[9] = tested on: MMP-2; settings: one week after MI; RT-PCR
Procedure: To clarify the mechanism of BM-EPC kinetics induced by AMD3100, RT-PCR was performed for MMP-9 mRNA expression on BM-mononuclear cells one week after MI was performed. RNA was extracted from mononuclear cells isolated from bone marrow using TRIzol reagent (Invitrogen) according to the manufacture's instruction. Reverse transcriptase-polymerase chain reaction (RT-PCR) of the MMP-9 and GAPDH genes was performed using 1 μg of total RNA. PCR was performed for 25 cycles for both MMP-9 and GAPDH; each cycle maintained 94° C. for 30 seconds and 64° C. for three minutes. Amplification was carried out in 20-μl reaction mixtures containing 0.4 U Taq polymerase.

[10] = tested on: BS lectin 1 and β-gal double-positive cells; settings: one week after AMI; 400×
Procedure: Apex-sections from the Tie-2/LZ/BMT mice were embedded in OCT compound (Miles Scientific) and snap-frozen in liquid nitrogen for fluorescence microscopy immediately after sacrifice. Immunohistochemical staining was performed using antibodies against the rabbit anti-B-galactosidase IgG (CORTEX Biochem) and the murine-specific EC marker fluorescein griffonia simplicifolia lectin I (Vector Laboratories).
Sections of ischemic (FIGS. 12A-12F) and intact (FIGS. 13A-13F) myocardium were stained for both BS lectin 1 (green fluorescence) and β-galactosidase (red fluorescence).

[11] = tested on: X-gal positive cells (bone-marrow derived endothelial cells) in left ventricle; settings: for number of X-gal positive cells: infarct and border area, Tie2-LacZ/BMT mice
Description: This Example describes the experimental design of the Tie2-LacZ/BMT mouse model. […] FVB/N background mice (n=30) were irradiated to kill their endogenous bone marrow. They were then given a bone marrow transplant (BMT) of 2×10^6 mononuclear cells (MNCs) derived from age-matched (4 weeks old) Tie2-LacZ mice (FVB/N-TgN[TIE2LacZ]182Sato, Jackson Lab). AMIs were induced in the mice (now called Tie2-LacZ/BMT mice) by LAD ligation four weeks after BMT, by which time the bone marrow of the recipient mice had been reconstituted. Right after AMI, the mice were each given a single subcutaneous injection of AMD-3100 (125 μg) or saline (control). Bone marrow cells were obtained using procedures described above. Bone marrow mononuclear cells were also isolated by density centrifugation. Tissue analysis was done at one or two weeks.
Tie-2/LZ/BMT mice were sacrificed at one and two weeks after MI. The explanted hearts were sliced in a bread-loaf fashion into transverse sections from apex to base (base-, mid-, and apex-portions). Mid-portions of the hearts were fixed in 4% paraformaldehyde for three hours at room temperature and incubated in X-gal solution overnight at 37° C. The target tissue samples were then placed in PBS [need to spell this out] and examined under a dissecting microscope for macroscopic identification of lacZ-expressing cells. Histological sections of the mid-portion heart tissue were counterstained with hematoxylin and eosin and assessed by light microscopy. The number of X-gal positive cells in six randomly chosen fields at 40× magnification were counted in a blinded manner.
Left ventricle sections of AMD-3100-treated and control Tie2-LacZ/BMT mice were analyzed one and two weeks after AMI. […] The quantitative analysis of X-gal positive cells was evaluated by histological examination of six randomly selected fields in the infarct and border area.

[12] = 1 week after MI, 125 μg s.c. after MI
[13] = 2 weeks after MI, 125 μg s.c. after MI
[14] = 2 weeks after MI, 125 μg s.c. after MI, listed as AMD
[15] = 4 weeks after MI, 125 μg s.c. after MI
[16] = 4 weeks after MI, 125 μg s.c. after MI, listed as AMD

c1cc(CN2CCCNCCNCCCNCC2)ccc1CN1CCCNCCNCCCNCC1 [AMD-3100, 1,1′-[1,4-phenylene-bis(methylene)]-bis-1,4,8,11-tetraazacyclotetradecane]
maximal MNCs and EPCs (number) ([1]; 1 hour after single s.c. injection of 125 μg, FVB/N mice, peripheral blood): 613±89 cells/mm^2 | time until MNC/EPC numbers returned to baseline ([1]; after single s.c. injection of 125 μg): ≤ 24 h | time of maximal MNCs and EPCs after drug administration ([1]; single s.c. injection of 125 μg): 1 h | FS (fractional shortening) [2, 12]: 35 ± 2% | HR (heart rate) [2, 12]: 494 ± 24 bpm | LVDd [2, 12]: 3.5 ± 0.1 mm | LVDs [2, 12]: 2.2 ± 0.1 mm | FS (fractional shortening) [2, 13]: 34±1% | HR (heart rate) [2, 13]: 515 ± 16 bpm | LV +dP/dt [2, 13]: 3383±104 mm Hg/s | LV −dP/dt [2, 13]: 2213±113 mm Hg/s | LVDd [2, 13]: 3.8±0.1 mm | LVDs [2, 13]: 2.5±0.1 mm | LVEDP [2, 13]: 1.6±0.4 mmHg | LVSP [2, 13]: 71±2 mmHg | FS (fractional shortening) [2, 14]: 34±1% | LV +dP/dt [2, 14]: 3475±168 mm Hg/s | LV −dP/dt [2, 14]: 2842 ± 200 mm Hg/s | LVDd [2, 14]: 3.8 ± 0.1 mm | LVDs [2, 14]: 2.5 ± 0.1 mm | LVEDP [2, 14]: 1.5±0.2 mmHg | LVSP [2, 14]: 73 ± 3 mmHg | LVDd ([2]; 2 weeks after MI, 125 μg s.c. after MI, listed as AMD3100): 3.8±0.1 mm | LVDs ([2]; 3 wks after MI (as printed in text)): 2.5±0.2 mm | HR (heart rate) [2, 15]: 473 ± 26 bpm | LV −dP/dt [2, 15]: 2213 ± 112 mm Hg/s | LVDd [2, 15]: 4.0±0.1 mm | LVDs [2, 15]: 2.6±0.2 mm | FS (fractional shortening) [2, 16]: 28±1% | LV +dP/dt [2, 16]: 3383±104 mm Hg/s | LVDd [2, 16]: 4.0 ± 0.1 mm | LVDs [2, 16]: 2.9 ± 0.1 mm | LVEDP [2, 16]: 1.6±0.4 mmHg | LVSP [2, 16]: 71±2 mmHg | difference in heart rate between the two groups ([2]; after MI, vs control group): no significant difference | FS (fractional shortening) ([2]; before MI): 52 ± 1% | HR (heart rate) ([2]; before MI): 510 ± 26 bpm | LVDd ([2]; before MI): 2.8 ± 0.1 mm | LVDs ([2]; before MI): 1.4 ± 0.1 mm | LVDd, LVDs, fractional shortening, and heart rate, difference between the groups ([2]; before MI and one week after MI, vs saline): not significantly different | difference in LVSP between the groups ([2]; two weeks after MI, vs control): no significant difference | mice still living ([3]; 14 weeks after AMI (so in the source), FIG. 4A): 64% | mice died ([3]; another group of mice, four weeks after MI, FIG. 4B): 42% | survival rate vs mice receiving saline ([3]; four weeks after MI, FIG. 4B): higher | capillary density in border zone [4]: 4005±189 /mm^2 | fibrosis area of left ventricle [5]: 25±6% | number of cultured EPCs ([6]; four weeks after AMI): returned to basline | number of EPCs in peripheral blood ([6]; one week after AMI): 868±210 /mm^2 | number of EPCs in peripheral blood ([6]; two weeks after AMI): 556±47 /mm^2 | EPCs (Sca-1/Flk-1 positive) in BM mononuclear cells by FACS [7]: 1.9±0.1% | EPCs (Sca-1/Flk-1 double positive) in peripheral blood by FACS [8]: 11.3±1.4% | expression of MMP-2 in BM mononuclear cells [9]: not | double-positive cells in a representative section [10]: eight | double-positive cells in another representative section [10]: eight | double-positive cells in tissue (merged fluorescence microscopy) [10]: marked increase | number of X-gal positive cells ([11]; 1 week after AMI): 3776±113 /mm2 | number of X-gal positive cells ([11]; 2 weeks after AMI): 1906±138 μmm2 | X-gal staining of the left ventricle (macroscopic) vs controls ([11]; one and two weeks after AMI): marked increase
